From patent EP0354453A2, “Antimicrobial agent for animals” (priority 1988, dated 1990)
≈ marks a conversion by molar mass, not a printed value. Structures can show the parent of a compound that is named as a salt. Where two headings read alike, the source gives them in different places.

Tests used:
[1] = test system: Bordetella bronchiaseptica OKM-1; assay: in vitro antimicrobial activity (MIC), agar dilution, Part 2; assay type: cell-based
Protocol: (§1) Test microorganisms listed in Table 2 were cultured overnight in heart infusion nutrient broth (produced by Eiken Chemical Co., Ltd.). Culture broth containing about 10⁸/ml cells was diluted to a volume of 100 times. An aliquot (about 0.05 ml) of the diluted broth was inoculated onto a Mueller Hinton agar plate (produced by Eiken Chemical Co., Ltd.) to which Compound No. 1 was added in a prescribed concentration. […]
(§2) MIC of Compounds (1)-(8) against various pathogenic bacteria derived from animals was determined in the same manner as in Example 1.

[2] = test system: Salmonella typhimurium 103; assay: as above; assay type: cell-based; settings: Salmonella enterica
Protocol: as §1, §2

Escherichia coli 881 = assay: as above; assay type: cell-based
Protocol: as §1, §2

Escherichia coli 139 = assay: as above; assay type: cell-based
Protocol: as §1, §2

Escherichia coli S6W = assay: as above; assay type: cell-based
Protocol: as §1, §2

[3] = test system: Staphylococcus aureus Yamaguchi 6; assay: as above; assay type: cell-based
Protocol: as §1, §2

[4] = test system: Salmonella typhimurium 569; assay: as above; assay type: cell-based
Protocol: as §1, §2

[5] = test system: Pasteurella multocida DB-12-1; assay: as above; assay type: cell-based; settings: DB121
Protocol: as §1, §2

[6] = test system: Mycoplasma gallisepticum Strain T-7; assay: in vitro antimicrobial activity (MIC) in Frey liquid medium; assay type: cell-based; settings: Mycoplasmoides gallisepticum, Mycoplasma gallisepticum Strain T-7, from chicken, 37°C, 3-5 days
Protocol: (§3) Various test strains of Mycoplasma gallisepticum derived from chicken were cultured in a Frey liquid medium for Mycoplasma for 3 days. The culture broth containing about 10⁸/ml cells was diluted to a volume of 100 times. The diluted broth was inoculated into Frey liquid media for Mycoplasma to which the compounds of this invention were added at prescribed concentrations. The cells were incubated at 37°C for 3-5 days while daily observing the color of the media. Among the culture broths maintaining yellow color at the time when the control to which no test compound was added turned red, the concentration of the broth having the minimum concentration was taken as the MIC of the compound.

[7] = test system: Mycoplasma gallisepticum Strain T-2; assay: as above; assay type: cell-based; settings: Mycoplasmoides gallisepticum
Protocol: as §3

[8] = test system: Mycoplasma gallisepticum Strain DP-1047; assay: as above; assay type: cell-based; settings: Mycoplasmoides gallisepticum
Protocol: as §3

[9] = test system: Mycoplasma gallisepticum Strain 2012; assay: as above; assay type: cell-based; settings: Mycoplasmoides gallisepticum, STRAIN2012
Protocol: as §3

[10] = test system: Mycoplasma gallisepticum Strain 2004; assay: as above; assay type: cell-based; settings: Mycoplasmoides gallisepticum, STRAIN2004
Protocol: as §3

[11] = Acute toxicity test, intravenous injection; assay type: in vivo
Protocol: Representative test compounds, Compounds (2) and (3), were intravenously injected to mice. No fatality occurred at a dose of 200 mg/kg (10 mice/group), for Compound (2), and a dose of 200 mg/kg (6 mice/group), for Compound (3). From the results, the LD₅₀ values of the compounds are considered to be greater than 200 mg/kg.

Mycoplasma gallisepticum = assay: Effect of oral administration on chicken inoculated with Mycoplasma gallisepticum; assay type: in vivo; settings: for Chickens developing disease in air sac (naked eye observation) / No. of dead chickens: 5 tested chickens
Protocol: Mycoplasma gallisepticum cells collected from chickens having respiratory Mycoplasma infection were cultured for 3 days in a Frey liquid media for Mycoplasma. 0.2 ml of this culture broth was injected into the trachea of chickens of an average body weight of 80 g using a 1 ml disposable injection needle. Beginning from the next day following the inoculation, feeds to which Compound (1) had been added in the amount of 100 ppm, 75 ppm, or 50 ppm were freely given to the chickens for 5 days. Following the administration of Compound (1) the chickens were given feed containing no drug for a further 5 days. The surviving chickens were sacrificed and dissected. After examination of the degree of disease in the air sac, Mycoplasma gallisepticum in the infraorbital sinus, trachea, lung, and air sac were determined. […] TABLE 6 […]

[12] = Bordetella, OKM1, Bordetella bronchiaseptica OKM-1, Pig, read-out: MIC
[13] = Salmonella typhimurium 103, Chicken, read-out: MIC
[14] = Escherichia coli, 881, Escherichia coli 881, Pig, read-out: MIC
[15] = Escherichia coli 139, Cow, read-out: MIC
[16] = Escherichia coli, S6W, Escherichia coli S6W, Chicken, read-out: MIC
[17] = Staphylococcus aureus Yamaguchi 6, Chicken, read-out: MIC
[18] = Salmonella enterica, TYPHIMURIUM, Salmonella typhimurium 569, Pig, read-out: MIC
[19] = Pasteurella multocida DB-12-1, Pig, read-out: MIC
[20] = Mycoplasma gallisepticum Strain T-2, from chicken, Frey liquid medium, 37°C, 3-5 days, read-out: MIC
[21] = Mycoplasma gallisepticum Strain DP-1047, from chicken, Frey liquid medium, 37°C, 3-5 days, read-out: MIC
[22] = Mycoplasma gallisepticum Strain 2012, from chicken, Frey liquid medium, 37°C, 3-5 days, read-out: MIC
[23] = Mycoplasma gallisepticum Strain 2004, from chicken, Frey liquid medium, 37°C, 3-5 days, read-out: MIC

Structure (SMILES) | MIC [1, 12] | MIC [2, 13] | MIC (Escherichia coli 881; [14]) | MIC (Escherichia coli 139; [15]) | MIC (Escherichia coli S6W; [16]) | MIC [3, 17] | MIC [4, 18] | MIC [5, 19] | MIC [6] | MIC [7, 20] | MIC [8, 21] | MIC [9, 22] | MIC [10, 23] | also measured
CCN1CCN(c2c(F)cc3c(=O)c(C(=O)O)cn4c3c2OC[C@@H]4C)CC1 [(6), 3S-9-fluoro-2,3-dihydro-3-methyl-10-(4-ethyl-1-piperazinyl)-7-oxo-7H-pyrido[1,2,3-de] [1,4]benzoxazine-6-carboxylic acid] | 0.2 µg/mL (≈ 0.533 µM) | 0.1 µg/mL (≈ 0.266 µM) | 0.1 µg/mL (≈ 0.266 µM) | 0.1 µg/mL (≈ 0.266 µM) | 0.1 µg/mL (≈ 0.266 µM) | 0.2 µg/mL (≈ 0.533 µM) | 0.1 µg/mL (≈ 0.266 µM) |  |  |  |  |  |  | 
CC(C)N1CCN(c2c(F)cc3c(=O)c(C(=O)O)cn4c3c2OCC4C)CC1 (racemic) [(4), 3(RS)-9-fluoro-2,3-dihydro-3-methyl-10-(4-iso-propyl-1-piperazinyl)-7-oxo-7H-pyrido[1,2,3-de] [1,4]benzoxazine-6-carboxylic acid] | 0.78 µg/mL (≈ 2 µM) | 0.78 µg/mL (≈ 2 µM) | 0.39 µg/mL (≈ 1 µM) | 0.78 µg/mL (≈ 2 µM) | 0.78 µg/mL (≈ 2 µM) | 0.78 µg/mL (≈ 2 µM) | 0.78 µg/mL (≈ 2 µM) | 0.2 µg/mL (≈ 0.514 µM) | 0.39 µg/mL (≈ 1 µM) | 0.39 µg/mL (≈ 1 µM) | 0.2 µg/mL (≈ 0.514 µM) | 0.05 µg/mL (≈ 0.128 µM) | 0.05 µg/mL (≈ 0.128 µM) | 
CCCN1CCN(c2c(F)cc3c(=O)c(C(=O)O)cn4c3c2OCC4C)CC1 (racemic) [Compound (3), 3(RS)-9-fluoro-2,3-dihydro-3-methyl-10-(4-n-propyl-1-piperazinyl)-7-oxo-7H-pyrido[1,2,3-de] [1,4]benzoxazine-6-carboxylic acid] | 0.78 µg/mL (≈ 2 µM) | 0.78 µg/mL (≈ 2 µM) | 0.2 µg/mL (≈ 0.514 µM) | 0.39 µg/mL (≈ 1 µM) | 0.39 µg/mL (≈ 1 µM) | 0.78 µg/mL (≈ 2 µM) | 0.39 µg/mL (≈ 1 µM) | 0.1 µg/mL (≈ 0.257 µM) | 0.39 µg/mL (≈ 1 µM) | 0.2 µg/mL (≈ 0.514 µM) | 0.2 µg/mL (≈ 0.514 µM) | 0.05 µg/mL (≈ 0.128 µM) | 0.025 µg/mL (≈ 0.0642 µM) | fatality ([11]; mice, intravenously injected, dose of 200 mg/kg): No fatality; LD50 ([11]; mouse, in vivo, iv): > 200 mg/kg; Mycoplasma gallisepticum collected in Air sac (Mycoplasma gallisepticum; 50 ppm in feed for 5 days): 3.24 Logarithmic number of collected cells per 1 g of tissue; Mycoplasma gallisepticum collected in Infraorbital sinus (Mycoplasma gallisepticum; 50 ppm in feed for 5 days): 0/5; Mycoplasma gallisepticum collected in Lung (Mycoplasma gallisepticum; 50 ppm in feed for 5 days): 2.38 Logarithmic number of collected cells per 1 g of tissue; Mycoplasma gallisepticum collected in Trachea (Mycoplasma gallisepticum; 50 ppm in feed for 5 days): 0 Logarithmic number of collected cells per 1 g of tissue; Chickens developing disease in air sac (naked eye observation) (Mycoplasma gallisepticum; 50 ppm in feed for 5 days): 0; No. of dead chickens (Mycoplasma gallisepticum; 50 ppm in feed for 5 days): 0; Mycoplasma gallisepticum collected in Air sac (Mycoplasma gallisepticum; 75 ppm in feed for 5 days): 0 Logarithmic number of collected cells per 1 g of tissue; Mycoplasma gallisepticum collected in Infraorbital sinus (Mycoplasma gallisepticum; 75 ppm in feed for 5 days): 0/5; Mycoplasma gallisepticum collected in Lung (Mycoplasma gallisepticum; 75 ppm in feed for 5 days): 0 Logarithmic number of collected cells per 1 g of tissue; Mycoplasma gallisepticum collected in Trachea (Mycoplasma gallisepticum; 75 ppm in feed for 5 days): 0 Logarithmic number of collected cells per 1 g of tissue; Chickens developing disease in air sac (naked eye observation) (Mycoplasma gallisepticum; 75 ppm in feed for 5 days): 0; No. of dead chickens (Mycoplasma gallisepticum; 75 ppm in feed for 5 days): 0; Mycoplasma gallisepticum collected in Air sac (Mycoplasma gallisepticum; 100 ppm in feed for 5 days): 0 Logarithmic number of collected cells per 1 g of tissue; Mycoplasma gallisepticum collected in Infraorbital sinus (Mycoplasma gallisepticum; 100 ppm in feed for 5 days): 0/5; Mycoplasma gallisepticum collected in Lung (Mycoplasma gallisepticum; 100 ppm in feed for 5 days): 0 Logarithmic number of collected cells per 1 g of tissue; Mycoplasma gallisepticum collected in Trachea (Mycoplasma gallisepticum; 100 ppm in feed for 5 days): 0 Logarithmic number of collected cells per 1 g of tissue; Chickens developing disease in air sac (naked eye observation) (Mycoplasma gallisepticum; 100 ppm in feed for 5 days): 0; No. of dead chickens (Mycoplasma gallisepticum; 100 ppm in feed for 5 days): 0
CCN1CCN(c2c(F)cc3c(=O)c(C(=O)O)cn4c3c2OCC4C)CC1 (racemic) [Compound (8), 3(RS)-9-fluoro-2,3-dihydro-3-methyl-10-(4-ethyl-1-piperazinyl)-7-oxo-7H-pyrido[1,2,3-de] [1,4]benzoxazine-6-carboxylic acid hydrochloride hemihydrate] |  |  |  |  |  |  |  |  |  |  |  |  |  | MIC ([1]; Bordetella bronchiaseptica OKM-1, Pig, listed as No. 8, hydrochloride hemihydrate): 0.39 µg/mL; MIC (Escherichia coli 881; Escherichia coli 881, Pig, listed as No. 8, hydrochloride hemihydrate): 0.2 µg/mL; MIC (Escherichia coli S6W; Escherichia coli S6W, Chicken, listed as No. 8, hydrochloride hemihydrate): 0.2 µg/mL; MIC ([4]; Salmonella typhimurium 569, Pig, listed as No. 8, hydrochloride hemihydrate): 0.2 µg/mL
CCn1cc(C(=O)O)c(=O)c2cc3c(cc21)OCO3 [Oxolinic acid, reference compound] |  |  |  |  |  |  |  |  |  |  |  |  |  | MIC ([1]; Bordetella, OKM1): 1.56 µg/mL (≈ 5.97 µM); MIC ([2]; TYPHIMURIUM): 0.78 µg/mL (≈ 2.99 µM); MIC (Escherichia coli 881; Escherichia coli, 881): 0.39 µg/mL (≈ 1.49 µM); MIC (Escherichia coli 139; Escherichia coli, 139): 0.78 µg/mL (≈ 2.99 µM); MIC (Escherichia coli S6W; Escherichia coli, S6W): 0.39 µg/mL (≈ 1.49 µM); MIC ([5]; Pasteurella multocida): 0.2 µg/mL (≈ 0.766 µM); MIC ([3]; Staphylococcus aureus): 3.13 µg/mL (≈ 12 µM); MIC ([4]; Salmonella enterica, TYPHIMURIUM): 0.39 µg/mL (≈ 1.49 µM); MIC [7]: > 100 µg/mL; MIC [8]: > 100 µg/mL; MIC [9]: > 100 µg/mL; MIC [10]: > 100 µg/mL

Now from value to compound, other results behind:

MIC [1, 12] | MIC [2, 13] | MIC (Escherichia coli 881; [14]) | MIC (Escherichia coli 139; [15]) | MIC (Escherichia coli S6W; [16]) | MIC [3, 17] | MIC [4, 18] | MIC [5, 19] | MIC [6] | MIC [7, 20] | MIC [8, 21] | MIC [9, 22] | MIC [10, 23] | Structure (SMILES) | also measured
0.78 µg/mL (≈ 1.93 µM) | 1.56 µg/mL (≈ 3.87 µM) | 0.78 µg/mL (≈ 1.93 µM) | 0.78 µg/mL (≈ 1.93 µM) | 0.78 µg/mL (≈ 1.93 µM) | 0.78 µg/mL (≈ 1.93 µM) | 0.78 µg/mL (≈ 1.93 µM) | 0.1 µg/mL (≈ 0.248 µM) | 0.1 µg/mL (≈ 0.248 µM) | 0.1 µg/mL (≈ 0.248 µM) | 0.1 µg/mL (≈ 0.248 µM) | 0.025 µg/mL (≈ 0.062 µM) | 0.025 µg/mL (≈ 0.062 µM) | CCCCN1CCN(c2c(F)cc3c(=O)c(C(=O)O)cn4c3c2OCC4C)CC1 (racemic) [Compound (5), 3(RS)-9-fluoro-2,3-dihydro-3-methyl-10-(4-n-butyl-1-piperazinyl)-7-oxo-7H-pyrido[1,2,3-de] [1,4]benzoxazine-6-carboxylic acid] | 
0.39 µg/mL (≈ 1 µM) | 0.2 µg/mL (≈ 0.514 µM) | 0.2 µg/mL (≈ 0.514 µM) | 0.2 µg/mL (≈ 0.514 µM) | 0.2 µg/mL (≈ 0.514 µM) | 0.2 µg/mL (≈ 0.514 µM) | 0.2 µg/mL (≈ 0.514 µM) |  |  |  |  |  |  | CCCN1CCN(c2c(F)cc3c(=O)c(C(=O)O)cn4c3c2OC[C@@H]4C)CC1 [Compound (7), 3S-9-fluoro-2,3-dihydro-3-methyl-10-(4-n-propyl-1-piperazinyl)-7-oxo-7H-pyrido[1,2,3-de] [1,4]benzoxazine-6-carboxylic acid] | 
